Reference: PMC3692405, “Disease-associated mutations in CNGB3 promote cytotoxicity in photoreceptor-derived cells” (Molecular Vision, 2013)
Read-outs that look alike come from different tables or passages of the source.

Columns and labels:
[1] = tested on: 661W cells expressing CNGA3 plus WT CNGB3; experiment: LDH-release cytotoxicity assay, cells expressing WT channels; format: cell-based, mouse; conditions: 24 h
Experimental: The mouse photoreceptor 661W cell line used in this study was generously provided by Dr. Al-Ubaidi (University of Oklahoma Health Sciences Center, Oklahoma City, OK). The 661W cells were routinely maintained in Dulbecco’s modified Eagle’s medium (Gibco, Carlsbad, CA), supplemented with 10% fetal bovine serum (Gemini Bioproducts, Sacramento, CA) and 1% penicillin/streptomycin (Gibco), at 37 °C in a humidified incubator with 5% CO2; cells were subcultured every 3–5 days. The 661W cells were transfected with pOPRSVI plasmids encoding human cone CNG channel subunits using Lipofectamine™ 2000 and OptiMEM (Life Technologies, Carlsbad, CA) according to the manufacturer’s protocol for cells in suspension. […]
For most experiments, the LDH Cytotoxicity Detection Kit (Roche Applied Science) was used according to the manufacturer’s protocol (see also [37]). […] Following treatment, half of the culture medium was transferred to another 96-well plate and the LDH released into the culture medium was measured to assess the number of damaged/dead cells. Cells in the original plate were then lysed and the total amount of cellular LDH was assessed. The percentage cytotoxicity was then calculated from the ratio of LDH concentration in the medium/cells, and was normalized to the percentage cytotoxicity in untreated cells transfected with control pOPRSVI plasmid only.

[2] = tested on: 661W cells expressing CNGA3 plus CNGB3 F525N; conditions: 24 h
Experimental: (§1) The mouse photoreceptor 661W cell line used in this study was generously provided by Dr. Al-Ubaidi (University of Oklahoma Health Sciences Center, Oklahoma City, OK). The 661W cells were routinely maintained in Dulbecco’s modified Eagle’s medium (Gibco, Carlsbad, CA), supplemented with 10% fetal bovine serum (Gemini Bioproducts, Sacramento, CA) and 1% penicillin/streptomycin (Gibco), at 37 °C in a humidified incubator with 5% CO2; cells were subcultured every 3–5 days. The 661W cells were transfected with pOPRSVI plasmids encoding human cone CNG channel subunits using Lipofectamine™ 2000 and OptiMEM (Life Technologies, Carlsbad, CA) according to the manufacturer’s protocol for cells in suspension. A reporter plasmid—a green fluorescent protein-expressing vector (pQBI25-fC2, Wako Pure Chemical Industries, Ltd., Japan) using a constitutive CMV promoter—was transfected under the same conditions to assess transfection efficiency. […] In addition, the pOPRSVI plasmid was transfected alone as a negative control. The amounts of each vector were as follows (µg/10 cm^2 culture surface): 2 FLAG- or GFP-CNGA3 plus 2 FLAG-CNGB3 (WT, T383fsX or F525N); 4 GFP; or 4 pOPRSVI.
(§2) For most experiments, the LDH Cytotoxicity Detection Kit (Roche Applied Science) was used according to the manufacturer’s protocol (see also [37]). Briefly, cultured 661W cells were transfected with the desired plasmid constructs as described above and then plated in 96-well tissue culture plates at a density of approximately 8×10^3 cells/well. Forty-eight hours after transfection, cells were treated with various concentrations of CPT-cGMP and/or CPT-cAMP (Sigma-Aldrich) alone or together with L-cis-diltiazem (Enzo Life Sciences, Inc., Farmingdale, NY) in Dulbecco’s modified Eagle’s medium supplemented with 1% fetal bovine serum for 24 h at 37 °C. Following treatment, half of the culture medium was transferred to another 96-well plate and the LDH released into the culture medium was measured to assess the number of damaged/dead cells. Cells in the original plate were then lysed and the total amount of cellular LDH was assessed. The percentage cytotoxicity was then calculated from the ratio of LDH concentration in the medium/cells, and was normalized to the percentage cytotoxicity in untreated cells transfected with control pOPRSVI plasmid only.

[3] = tested on: 661W cells expressing CNGA3 plus CNGB3 T383fsX; conditions: for relative cytotoxicity (LDH release, normalized to untreated vector-only control): 24 h
Experimental: as §1, §2

[4] = 1 µM CPT-cAMP coapplied with 0.1 µM CPT-cGMP
[5] = 10 µM CPT-cAMP combined with 0.1 µM CPT-cGMP

| SMILES | relative cytotoxicity (LDH release, normalized to untreated vector-only control) ([1]; 0.1 µM CPT-cGMP) | relative cytotoxicity (LDH release, normalized to untreated vector-only control) ([2]; 0.1 µM CPT-cGMP alone) | relative cytotoxicity (LDH release, normalized to untreated vector-only control) ([3]; 0.1 µM CPT-cGMP) | relative cytotoxicity (LDH release, normalized to untreated vector-only control) [1, 4] | relative cytotoxicity (LDH release, normalized to untreated vector-only control) [2, 4] | relative cytotoxicity (LDH release, normalized to untreated vector-only control) [2, 5] | relative cytotoxicity (LDH release, normalized to untreated vector-only control) [3, 5] | effect on relative cytotoxicity compared to CPT-cGMP treatment alone ([3]; various concentrations of CPT-cAMP coapplied with 0.1 µM CPT-cGMP) |
| --- | --- | --- | --- | --- | --- | --- | --- | --- |
| Nc1nc2c(nc(Sc3ccc(Cl)cc3)n2[C@@H]2O[C@@H]3COP(=O)(O)O[C@H]3[C@H]2O)c(=O)[nH]1 [CPT-cGMP, 8-(4-chlorophenylthio) guanosine 3′,5′-cyclic monophosphate] | 1.11±0.04 | 1.59±0.05 | 1.26±0.05 | – | – | – | – | – |
| Nc1ncnc2c1nc(Sc1ccc(Cl)cc1)n2[C@@H]1O[C@@H]2COP(=O)(O)O[C@H]2[C@H]1O [CPT-cAMP, CPT-adenosine 3′,5′-cyclic monophosphate] | – | – | – | 0.98±0.03 | 1.31±0.06 | 1.67±0.08 | 1.30±0.05 | unaltered |
